Like-named read-outs stand apart in the source and are kept apart here.
Columns and labels:
COX-2 = molecular target: T1, COX-2 (Homo sapiens, UniProt P35354); experiment: COX-2 inhibition assay (fluorometric inhibitor screening kit); format: biochemical
T1 construct: purchased BioVision K547-100
T1 sequence (P35354 18-604): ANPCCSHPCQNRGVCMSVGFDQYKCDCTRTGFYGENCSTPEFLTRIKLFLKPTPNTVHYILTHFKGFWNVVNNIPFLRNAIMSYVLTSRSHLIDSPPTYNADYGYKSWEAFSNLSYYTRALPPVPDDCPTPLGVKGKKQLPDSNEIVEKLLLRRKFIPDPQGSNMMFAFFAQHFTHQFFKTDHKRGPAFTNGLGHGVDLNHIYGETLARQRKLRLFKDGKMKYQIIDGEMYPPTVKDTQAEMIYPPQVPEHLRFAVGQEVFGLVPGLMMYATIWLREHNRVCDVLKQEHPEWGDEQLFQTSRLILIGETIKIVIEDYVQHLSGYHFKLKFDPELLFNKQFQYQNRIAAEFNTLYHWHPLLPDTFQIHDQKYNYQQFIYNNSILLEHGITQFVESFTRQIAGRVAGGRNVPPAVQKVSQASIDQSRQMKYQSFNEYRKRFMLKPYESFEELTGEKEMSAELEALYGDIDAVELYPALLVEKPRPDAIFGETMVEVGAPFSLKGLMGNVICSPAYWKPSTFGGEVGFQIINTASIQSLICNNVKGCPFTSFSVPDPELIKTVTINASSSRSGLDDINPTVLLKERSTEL
Description: The fluorometric approach was used to measure the in vitro cyclooxygenase (COX-2) inhibitory activity. It was carried out in accordance with the COX-2 Inhibitor Screening Kit methodology, as advised by the manufacturer (CAT # K547-100, BioVision, Milpitas, CA, USA). The sample solutions were prepared in the manner described before providing twelve concentrations (ranging from […]).
(§1) The IC50 values were represented as means (± SD) from triplicates of two independent experiments.

[1] = molecular target: T2, horse serum butyrylcholinesterase (Equine BchE) (Equus caballus, UniProt P81908); experiment: BchE inhibition assay; format: biochemical
T2 construct: using horse serum butyrylcholinesterase (Equine BchE; CAS#9001-08-5); tissue CAS#9001-08-5; host or cells: horse serum
T2 sequence (P81908 whole entry): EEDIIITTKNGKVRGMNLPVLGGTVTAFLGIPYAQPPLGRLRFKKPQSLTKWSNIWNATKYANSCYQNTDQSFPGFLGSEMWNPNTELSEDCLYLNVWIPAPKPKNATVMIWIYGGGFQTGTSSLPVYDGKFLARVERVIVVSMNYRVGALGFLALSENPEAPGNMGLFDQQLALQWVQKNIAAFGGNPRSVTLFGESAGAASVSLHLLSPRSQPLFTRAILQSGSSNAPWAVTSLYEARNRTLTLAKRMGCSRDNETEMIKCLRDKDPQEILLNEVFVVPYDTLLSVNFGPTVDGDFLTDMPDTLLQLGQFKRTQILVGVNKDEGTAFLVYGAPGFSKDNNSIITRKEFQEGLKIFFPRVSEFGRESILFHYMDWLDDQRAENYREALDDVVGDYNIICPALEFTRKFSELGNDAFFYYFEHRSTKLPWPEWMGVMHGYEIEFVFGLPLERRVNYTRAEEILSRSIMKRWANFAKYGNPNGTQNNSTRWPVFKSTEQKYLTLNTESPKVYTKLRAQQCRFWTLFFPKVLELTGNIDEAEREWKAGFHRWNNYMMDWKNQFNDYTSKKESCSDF
Description: The in vitro butyrylcholinesterase (BchE) inhibitory activity of the isolated polyacetylenes was determined according to the published method, using horse serum butyrylcholinesterase (Equine BchE; CAS#9001-08-5) with a slight change. To create a useful stock solution, the materials were dissolved in DMSO. The maximal DMSO concentration was 0.1%, and twelve sample concentrations (ranging from […]) were created by two-fold serial dilution in Tris buffer (pH 8.0).
as §1

5-LOX [2] = molecular target: T3, 5-LOX (Homo sapiens, UniProt P09917); experiment: 5-LOX inhibition assay (fluorometric inhibitor screening kit); format: biochemical
T3 construct: purchased BioVision K980-100
T3 sequence (P09917 1-674): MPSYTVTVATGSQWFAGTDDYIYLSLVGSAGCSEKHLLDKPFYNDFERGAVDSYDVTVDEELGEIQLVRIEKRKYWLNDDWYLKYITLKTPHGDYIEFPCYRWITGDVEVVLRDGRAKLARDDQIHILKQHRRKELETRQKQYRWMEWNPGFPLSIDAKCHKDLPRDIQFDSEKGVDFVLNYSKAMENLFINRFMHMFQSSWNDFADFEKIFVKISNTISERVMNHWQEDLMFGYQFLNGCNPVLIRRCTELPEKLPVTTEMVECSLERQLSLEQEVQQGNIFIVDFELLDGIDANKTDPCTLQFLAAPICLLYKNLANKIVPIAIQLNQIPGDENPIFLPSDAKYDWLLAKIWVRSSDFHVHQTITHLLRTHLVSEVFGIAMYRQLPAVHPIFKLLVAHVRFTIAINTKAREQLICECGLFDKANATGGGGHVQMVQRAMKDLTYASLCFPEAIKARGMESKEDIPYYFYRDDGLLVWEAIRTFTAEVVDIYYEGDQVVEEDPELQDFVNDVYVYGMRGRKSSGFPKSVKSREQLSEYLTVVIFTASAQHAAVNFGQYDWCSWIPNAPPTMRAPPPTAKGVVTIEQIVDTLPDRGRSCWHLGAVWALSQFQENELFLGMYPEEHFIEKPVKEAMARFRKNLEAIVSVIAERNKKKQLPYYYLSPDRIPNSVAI
Description: The fluorometric approach was used to test the 5-LOX enzyme, in accordance with the manufacturer’s instructions, by using the enzyme’s inhibitor screening kit (CAT # K980-100, BioVision, Milpitas, CA, USA) to evaluate the 5-lipoxygenase (5-LOX) inhibitory activity in vitro [18, 45, 46]. Twelve concentrations (ranging from […]) were prepared by serial dilution method.
as §1

5-LOX [3] = molecular target: T3, 5-LOX; conditions: read-out: inhibitory activity against 5-LOX; cited from earlier work
COX-1 = conditions: read-out: inhibitory activity against COX-1; cited from earlier work

Row | SMILES | IC50 (COX-2; in vitro, mean ± SD, triplicates of two independent experiments, read-out: IC50 against COX-2) | IC50 [1] | IC50 (5-LOX [2]) | IC50 (COX-2) | IC50 against COX-2 (COX-2; in vitro, mean ± SD, triplicates of two independent experiments) | IC50 (5-LOX [3]) | IC50 (COX-1)
1 | CC(Cc1ccc(O)c(O)c1)C(C)Cc1ccc(O)c(O)c1 (stereo not shown) [NDGA, nordihydroguaiaretic acid, reference compound] | 4.7 ± 0.76 µM |  |  |  |  |  | 
2 | C/C=C/C#CC#C/C=C/CC[C@H](O)CCO [Compound 2, (3S)-(6E,12E)-tetradecadiene-8,10-diyne-1,3-diol] |  | 179 ± 15.6 µM | > 200 µM | > 200 µM | inactive |  | 
3 | C/C=C/C#CC#C/C=C/C=C\CCOC(=O)/C=C/c1ccc(O)c(OC)c1 [(3Z,5E,11E)-tridecatriene-7,9-diynyl-1-O-(E)-ferulate] |  |  |  |  |  | 3.4 µM | 1.1 µM
4 | C/C=C/C#CC#C/C=C/CC[C@@H](CCO)O[C@@H]1O[C@H](CO)[C@@H](O)[C@H](O)[C@H]1O [Compound 4, (3S)-(6E,12E)-tetradecadiene-8,10-diyne-1-ol-3-O-β-D-glucopyranoside] |  | 14.8 ± 1.55 µM | 34.6 ± 4.26 µM | 146 ± 7.7 µM |  |  | 

Reference: PMC10145610, “In Vitro and In Silico Investigation of Polyacetylenes from Launaea capitata (Spreng.) Dandy as Potential COX-2, 5-LOX, and BchE Inhibitors” (Molecules, 2023)
